Assay results: patent publication US20130189200A1, “Oral Composition For Removing Tooth Stain” (REGENETISS, INC., priority 2010, published 2013)

Assay: Whitening effect evaluation test (residual ratio of stain on tea-stained dry apatite)
Description: 1 to 2 g of hydroxyapatite (Biogel-HTP, Bio-Rad Laboratories, Inc.) was put into a 50 mL tube, and 20 mL of protein solution (1%, IXOS SCP5000, Nitta Gelatin Inc.) was added thereto, and the mixture was left to stand for 10 to 15 minutes, and then the mixture was separated by centrifugation at 3,000×g for 2 minutes to remove a supernatant. Next, after the centrifugation, 20 mL of stain solution (5 g of instant coffee, two tea bags and two green tea bags were put into 110 mL of water, and the mixture was heated by a microwave oven for 2 minutes. Then the mixture was cooled down at room temperature with shaking for 3 hours to one night. Then the mixture was filtered by a 200 mesh filter. The stain liquid was obtained like this.) was mixed with the precipitated apatite, and the mixture was left to stand for 10 to 15 minutes, and then the mixture was separated by centrifugation (2,500 rpm, 2 minutes) to remove a supernatant. Then, after centrifugation, 20 mL of artificial saliva (20 mM HEPES-KOH pH 7.0, 1.5 mM CaCl2 and 0.9 mM KH2PO4) was added into the precipitated apatite, and the mixture was left to stand for 10 to 15 minutes, and then the mixture was separated by centrifugation (2,500 rpm, 2 minutes). After removal of a supernatant from the mixture, the precipitated apatite was dried.
20 mg of the tea-stained dry apatite is weighed, and 0.3 mL of solution was added thereto, which contains H2O2 at various concentrations and, as appropriate, various phosphate polymers, NaOH and other substances, and then the mixture was left to stand at a certain temperature for a certain time. Then the apatite was precipitated by centrifugation (3,000×g, 15 seconds), and a supernatant was removed from the mixture, and then the apatite was mixed well with 1 mL of water to wash. Further, subsequent washing procedure was repeated four times. After that, the apatite was suspended in 200 μL of water, and the suspension was poured into a well of a 96 well microtiter plate. The 96 well microtiter plate was scanned from the bottom by a scanner (Epson GT8300). The image was inverted to be negative, and brightness analysis was performed by means of imageJ (free software), and then the residual ratio of stain was calculated.

SMILES | Residual ratio of stain (15% carbamide peroxide alone, NaOH 0 N, pH 7.0, 45 °C, 30 min) [%] | Residual ratio of stain (15% carbamide peroxide alone, NaOH 0 N, pH 7.0, 45 °C, 60 min) [%] | Residual ratio of stain (15% carbamide peroxide alone, NaOH 1 N, pH 11.4, 45 °C, 30 min) [%] | Residual ratio of stain (15% carbamide peroxide alone, NaOH 1 N, pH 11.4, 45 °C, 60 min) [%] | Residual ratio of stain (30% carbamide peroxide alone, NaOH 0 N, pH 7.1, 45 °C, 60 min) [%] | Residual ratio of stain (30% carbamide peroxide alone, NaOH 1 N, pH 10.9, 45 °C, 30 min) [%] | Residual ratio of stain (30% carbamide peroxide alone, NaOH 1 N, pH 10.9, 45 °C, 60 min) [%] | Residual ratio of stain (highest whitening effect) (carbamide peroxide only, 30%, alkaline condition, treatment time 60 minutes (so in the source)) [%] | Residual ratio of stain (3.5% H2O2, 0% ultraphosphate, pH 7.5, 42 °C, 10 min) [%] | Residual ratio of stain (3.5% H2O2, 0% ultraphosphate, pH 7.5, 42 °C, 30 min) [%] | Residual ratio of stain (3.5% H2O2, 0% ultraphosphate, pH 7.5, 42 °C, 60 min) [%] | Residual ratio of stain (3.5% H2O2, 0% ultraphosphate, pH 7.5, 42 °C, 180 min) [%] | Residual ratio of stain (3.5% H2O2 alone, alkaline (1), pH 11.6, 45 °C, 30 min) [%] | Residual ratio of stain (20% hydrogen peroxide under alkaline condition, 30 minutes treatment) [%]
NC(N)=O.OO [carbamide peroxide] | 89.86 | 87.73 | 27.69 | 30.39 | 60.96 | 19.01 | 20.22 | 19.01 |  |  |  |  |  | 
OO [hydrogen peroxide] |  |  |  |  |  |  |  |  | 98.15 | 96.80 | 94.89 | 88.78 | 49.23 | 40.08
